Consider four molecules from patent US20250243520A1, “PRODUCTION METHOD FOR L-CYCLIC AMINO ACIDS” (UBE CORPORATION, priority 2019, published 2025).

Like-named read-outs stand apart in the source and are kept apart here.

A word on the Vmax: it is the rate approached at saturating substrate. Broadly, the Km is the substrate concentration at which the rate is half of its maximum.

The test system of experiment [1] is Morus alba imino acid (imine) reductase MaP2CR, GST-fused, SEQ ID NO: 10 (MaP2CR: SEQ ID NO: 4). In words: Analysis of enzymatic catalytic activity: reduction of PipC2 with varied NADPH, absorbance at 340 nm (MaP2CR). The class given is biochemical.
Experiment [2] has as its system Lathyrus japonicus imino acid (imine) reductase LjP2CR, GST-fused, SEQ ID NO: 12 (LjP2CR: SEQ ID NO: 6). In words: Analysis of enzymatic catalytic activity: reduction of PipC2 with varied NADPH, absorbance at 340 nm (LjP2CR). It is filed as biochemical.
For experiment [3], the target named is T1, Pseudomonas putida PipC2 reductase dpkA (Pseudomonas putida, UniProt Q5FB93). In words: Literature kinetics of PipC2 reductase dpkA (Muramatsu et al., 2005). The class given is biochemical. Particulars: Table 5; literature value; molecular weight 35954.
T1 sequence (Q5FB93 whole entry): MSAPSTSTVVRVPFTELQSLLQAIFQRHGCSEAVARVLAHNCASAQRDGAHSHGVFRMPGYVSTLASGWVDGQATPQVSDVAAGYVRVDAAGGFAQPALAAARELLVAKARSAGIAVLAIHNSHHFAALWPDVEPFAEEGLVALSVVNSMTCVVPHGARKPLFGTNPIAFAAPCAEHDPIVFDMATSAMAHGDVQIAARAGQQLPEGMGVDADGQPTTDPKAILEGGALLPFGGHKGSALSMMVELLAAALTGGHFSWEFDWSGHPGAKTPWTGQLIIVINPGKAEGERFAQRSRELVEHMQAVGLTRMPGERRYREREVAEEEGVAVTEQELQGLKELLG
Experiment [4] deals with T1, Pseudomonas putida PipC2 reductase dpkA. More on the design: NADP Vmax: unit not given here. Particulars: cited from earlier work.
The nature of experiment [5]: Enzyme reaction with PipC2 enzyme synthesis solution and *NADPH; products analysed by LCMS and chiral HPLC. The class given is biochemical. The settings on record: 10 mM *NADPH, 30° C., 120 minutes. Here is the method:
An enzyme reaction was carried out using each enzyme solution (purified P2CR recombinant enzyme solution) obtained in Example 1. The reaction was carried out using a 1.5 mL Eppendorf tube as the reaction vessel, and using each enzyme reaction solution in a volume of 100 μL. Since PipC2 which serves as the substrate is not commercially available, one obtained from L-lysine by enzyme synthesis, using the aminotransferase MaALDI obtained in Reference Example 1 to be described later, was used.
The enzyme reaction was carried out using a shaking incubator (manufactured by AS ONE Corporation), at a reaction temperature of 30° C. with shaking at 1,000 rpm. The reaction time was set to 120 minutes. Heating was performed at a reaction temperature of 98° C. for five minutes to inactivate the enzyme, and the reaction was terminated. Subsequently, the reaction solution was centrifuged at 15,000 rpm at room temperature for 10 minutes, and the resulting supernatant was used as a PipC2 enzyme synthesis solution.
Thereafter, the reaction was carried out under the same conditions as the reaction using the enzyme MaALDI described above, to obtain an enzyme reaction product.
Each of the enzyme reaction products was analyzed by liquid chromatography-mass spectrometry (LCMS). First, each sample (enzyme reaction product) was subjected to a derivatization treatment. Using AccQ·Tag Ultra Derivatization Kit (manufactured by Waters Corporation), a mixture of each sample was prepared according to the composition shown in Table 3. The derivatizating reagent solution was added at last. After mixing, the mixture was incubated at 55° C. for 10 minutes.
Each sample which had been subjected to the derivatization treatment was diluted two-fold with pure water, and used as a sample for LCMS analysis.
When the activities of the enzyme reaction products were analyzed by LCMS analysis, it was confirmed that the products had the same retention time as that of L-PipA as the standard, and that novel peaks of the MS pattern were observed. Further, it was unable to detect PipA in the control. […]

Setting [6] is: Table 5, values determined by ANEMONA, GST-fused protein.
Where [7] appears, read: Table 5, values determined by ANEMONA, GST-fused protein, read-out: NADP Km.

As for `NC(=O)C1=CN([C@@H]2O[C@H](COP(=O)(O)OP(=O)(O)OC[C@H]3O[C@@H](n4cnc5c(N)ncnc54)[C@H](OP(=O)(O)O)[C@@H]3O)[C@@H](O)[C@H]2O)C=CC1` [NADPH, reduced nicotinamide adenine dinucleotide phosphate], the Vmax is on record as 24.00 nmol/min/mg in experiment [1] (Hanes-Woolf plot, NADPH 0.5-80 μM, Tris-HCl pH 7.2); 21.2 nmol/min/mg in experiment [1] (nonlinear regression by ANEMONA, NADPH 0.5-80 μM, Tris-HCl pH 7.2); 199.55 nmol/min/mg in experiment [2] (Hanes-Woolf plot, NADPH 10-500 μM, Tris-HCl pH 7.2); 187.3 nmol/min/mg in experiment [2] (nonlinear regression by ANEMONA, NADPH 10-500 μM, Tris-HCl pH 7.2); 220 nmol/min/mg in experiment [4] (Muramatsu et al. 2005). The Km in experiment [1] (Hanes-Woolf plot, NADPH 0.5-80 μM, Tris-HCl pH 7.2, read-out: Km) came out at 6.16 µM; in experiment [1] (setting [7]), 3.6 µM; in experiment [1] (nonlinear regression by ANEMONA, NADPH 0.5-80 μM, Tris-HCl pH 7.2, read-out: Km) it was 3.57 µM; in experiment [2] (Hanes-Woolf plot, NADPH 10-500 μM, Tris-HCl pH 7.2, read-out: Km) it was 170 µM; in experiment [2] (setting [7]), 155 µM; in experiment [2] (nonlinear regression by ANEMONA, NADPH 10-500 μM, Tris-HCl pH 7.2, read-out: Km) it was 155 µM. Also, the Km in experiment [4] (Muramatsu et al. 2005, read-out: Km) is 140 µM; in experiment [4] (Table 5, literature value, read-out: NADP Km) it was 140 µM. The “Activity per one molecule of enzyme kcat” value in experiment [1] (Table 5, GST-fused protein, molecular weight 61792) worked out at 0.0217 s⁻¹; in experiment [2] (Table 5, GST-fused protein, molecular weight 63449), 0.198 s⁻¹; in experiment [3], 0.132 s⁻¹. For the same molecule, the “NADP Vmax” value is 21 in experiment [1] (setting [6]); 187 in experiment [2] (setting [6]); 220 in experiment [4] (Table 5, literature value).

B1: AtP2CR: imino acid reductase derived from Arabidopsis thaliana, SEQ ID NO: 2; GST-fused form SEQ ID NO: 8 (protein, listed as Arabidopsis thaliana)
chain: MAALPVFIPAESFPSILSHETLINHFRTNLPKHSSTITSPVRQNYTVSSPSSLLLMPSWSSSSSLPYMGVKLVTYFPHNSSQNLPGIHGSYTLFSSTTGQTLATMDGTVLTLYRTSSVSGLGSKILARDDSQVLIMVGSGALAPHLIKSHLAARPSLRRVIIWNRTPQRAQELAETLSKDPQHKEISFDSHDSLDQIIPLGDIISCATNSTVPLVKGEFLKPGTHLDLAGSFSHEMKECDDNAIQRGSVFVDNDTAMIEAGELAGAFERGVIKREDICGNLVELIKGDKEGRKSSTDITVFKSVGSGTVDLLTAQLVHETYLSRC
For the molecule B1, the “ability to reduce PipC2 to convert to PipA (LCMS of enzyme reaction products)” value (from here on “ability to reduce PipC2 to convert”) in experiment [5] was “have the ability to reduce PipC2 to convert to PipA”.

B2: MaP2CR: imino acid reductase derived from Morus alba, SEQ ID NO: 4; GST-fused form SEQ ID NO: 10 (protein, listed as Morus alba)
chain: MASTTTAITSPIFITTQSFHTILSRQTLMDHFHSSLPTVSASLSTPLRQNHAVSPTSSLLLMPSWSTSPSLPYIGVKLVTYFPQSSTLSLPGIHASYVLFSSATGQTLASMDGTALTLFRTSCVSGLASRILARDDSKVLVMIGAGALAPHLIKAHLTARPGLERVVIWNRTVEKARNLAEQLQQSSGLDGVCFESNGCLEEVVGMGDIVSCATNSEAPLVKGQKLKPGAHLDLVGSFKHSMRECDDEAIQRGRIFVDNEAALVEAGELVGAFERGVITKEDIGGNLVELIMGEKVGRRDSEEVTVFKSVGSAAVDILAAQLVYETYLQQNN
B2: the “ability to reduce PipC2 to convert” value in experiment [5] is reported as “have the ability to reduce PipC2 to convert to PipA”.

B3: LjP2CR: imino acid reductase derived from Lathyrus japonicus, SEQ ID NO: 6; GST-fused form SEQ ID NO: 12 (protein, listed as Lathyrus japonicus)
chain: MASANKDQKTTNTVSSSSSSSSPIFISTENLQTILTHQTLMKHIDSNLPKVSTFLQTPIRQHYSLSPSSSLLLMPSWSSSSSFPYVGVKLVTHFPQNSSINLPGVQGSYVLFNSTTGQTLASMDSTELTLYRTSCVSGLASRYLSRDDSEVLVMVGAGPLAPHLIRAHFSARPSLRKVLIWNRTVEKAEALAKNLRESDEFSLSGLSFEGCGCLNEVVGLGDIVSCATNSEMALVKGERLKVGAHLDLVGSFKPSMKECDDEALKRGKVFVDNEAALVEAGELVGAFERGVIKEDEIEANLVELIRGDKVGRRSSEEITVFKSVGSAVVDMLAAQFVYESYIGK
In the case of B3, the “ability to reduce PipC2 to convert” value in experiment [5] is given as “have the ability to reduce PipC2 to convert to PipA”.
